Results as given in ChEMBL document CHEMBL1129940, “Cytotoxicity of platinum (II) dinuclear complexes with 1-alkylthymine ligands against mouse sarcoma 180 cells” (J Med Chem, 1997).

System: CCRF S-180
Assay: In vitro inhibitory concentration against growth of mouse sarcoma 180 (S-180) cells
Format: functional, cell-based

- IC50: 1.07 µM
Sequence: CISPLATIN
